In patent publication US11325937B2, “Glycoside compound and preparation method therefor, composition, application, and intermediate” (SHANGHAI HUTCHISON PHARMACEUTICALS LIMITED, priority 2018, dated 2022):

Legend:
[1] = tested on: VEGF-A mRNA expression in macrophages (RAW264.7); assay: In vitro macrophage experiment: activity of compounds to promote VEGF-A mRNA expression (RT-qPCR); format: cell-based; details: Mus musculus, RAW264.7 macrophages, 3 h, relative expression, no drug = 1, read-out: Expression level of VEGF-A mRNA; for fold induction at 500 µM: 0.5 mM; for fold induction at 1000 µM: 1 mM; for fold induction at 2000 µM: 2 mM; for fold induction at 3000 µM: 3 mM; for fold induction at 4000 µM: 4 mM
Procedure, shortened: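 RAW264.7 macrophages were exposed to test compounds at various concentrations for 3 h at 37° C. VEGF-A mRNA was measured by SYBR Green RT-qPCR, normalized to β-Actin, and expressed as 2^−ΔΔCt relative to untreated cells (=1). Activity is the maximal fold induction, with ≥4 as hit criterion.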

[2] = tested on: HUVEC-12 endothelial cells; assay: Migration of HUVEC-12 endothelial cells (scratch test); format: cell-based, Human
Protocol: The experiment included seven groups. In Group 1, HUVEC-12 endothelial cells (purchased from Shanghai RongChuang Biotech Co., Ltd.) were treated directly with simple DMEM medium (Gibcol, Shanghai) containing 10% FBS (SERANA, Germany) (control). In Group 2, the endothelial cells were treated with the supernatant obtained 24 h after macrophages were cultured with DMEM medium containing 10% FBS (s-control). In Group 3, the endothelial cells cultured with DMEM medium containing 10% FBS were treated directly with TG-028 (TG-028, 10 μM). In Group 4, the endothelial cells were treated with the supernatant obtained after macrophages cultured with DMEM medium containing 10% FBS were treated and co-incubated with TG-028 for 24 h (s-TG-028, […]). In Group 5, the endothelial cells cultured with DMEM medium containing 10% FBS were treated directly with Cpd-18 (Salvianolate) (cpd-18, 10 μM). In Group 6, the endothelial cells were treated with the supernatant obtained after macrophages cultured with DMEM medium containing 10% FBS were treated and co-incubated with Cpd-18 (Salvianolate, 10 μM) for 24 h (s-cpd18). In Group 7, the endothelial cells cultured with DMEM medium containing 10% FBS were treated directly with VEGFD (Recombinant Human VEGF165, 10 ng/mL).
Human umbilical vein endothelial cells HUVEC-12 in logarithmic growth phase were counted, adjusted to a cell density of 5×10^5 cells/mL, and inoculated in 1 mL per well in a 6-well plate. The cells were conventionally cultured in an incubator to form monolayer cells of 90% confluency. The 6-well plate fully plated with cells was scratched perpendicular to the cell surface with a 200 μL pipette tip from one end to the other end of the well. The scratches were made transversely with the pipette tip being as perpendicular as possible to the bottom of the plate. […]
The medium was aspirated and the cells scratched off were washed off with PBS. […] The migration of endothelial cells was detected according to the cell scratch method and the relative migration rate was calculated. […]

COc1ccc(CCCCO[C@@H]2O[C@H](CO)[C@@H](O)[C@H](O)[C@H]2O)cc1 [TG-028]
fold induction at 500 µM [1]: 0.79 | fold induction at 1000 µM [1]: 0.39 | fold induction at 2000 µM [1]: 6.77 | fold induction at 3000 µM [1]: 13.4 | fold induction at 4000 µM [1]: 4.23 | effect on migration of endothelial cells (in words) ([2]; HUVEC-12 treated with supernatant of macrophages co-incubated 24 h with compound, 10 μM (s- groups)): comparable effect on the migration of endothelial cells as VEGF | effect on migration of endothelial cells (in words) ([2]; direct treatment of HUVEC-12, 24 h, compounds 10 μM, VEGF165 10 ng/mL, vs control medium): significant effect on the migration of endothelial cells

OC[C@H]1O[C@@H](OCCc2ccccc2)[C@H](O)[C@@H](O)[C@@H]1O [TG-055]
fold induction at 500 µM [1]: 6.36 | fold induction at 1000 µM [1]: 2.11 | fold induction at 2000 µM [1]: 4.44 | fold induction at 3000 µM [1]: 3.81 | fold induction at 4000 µM [1]: 6.11
